Data published in patent US20220304978A1, “INHIBITING MESANGIAL CELL ACTIVATION” (Chinook Therapeutics, Inc., priority 2019, published 2022).

Tested on: kidney tissue of g-ddY mice
Assay: RNA-seq differential gene expression in kidney tissue of g-ddY mice
Assay type: in vivo, mouse
Procedure: RNA isolation and sequencing libraries were generated using standard protocols. Sequencing was performed using an Illumina NextSeq500 using manufacturer's instructions with a read length of 75 bp and a read depth of 30 million. Raw data was assembled to FASTQ files. Following QC analysis, high quality sequencing reads (e.g., reads with a Phred quality score >36) were aligned to the mouse reference genome (GRCm38-mm10) using the default parameters of the align algorithm and transcript count tables of each library was generated using the default parameters of the featureCounts algorithm of the RSubread package (Liao Y, Smyth GK, Shi W, 2019). High quality sequencing reads mapped to 27,129 genes. Following additional QC of low count filtering (i.e. transcripts <10 counts across all samples), 16,207 genes were identified and used for further analysis. The remaining sequencing read counts of the included 16,207 genes were normalized to library size, log-transformed, and were quantified as counts per million (CPM). Select RNA-seq counts were validated using qPCR. Sequencing read counts (CPM) were used for identification of differential gene expression between specified populations using the quasi-likelihood methodology of the edgeR package. […] MA plots were generated using edgeR. Heatmaps and other plots were generated using the gplots and ggplot2 package.

[1] = 20 mg/kg/day vs control, cell proliferation signaling
[2] = 20 mg/kg/day vs control, inflammatory response signaling
[3] = 20 mg/kg/day vs control, mesangial cell signature
[4] = 30 mg/kg/day vs control, IL6 signaling
[5] = 30 mg/kg/day vs control, NF-kB signaling
[6] = 30 mg/kg/day vs control, PDGF signaling
[7] = 30 mg/kg/day vs control, cell proliferation signaling
[8] = 30 mg/kg/day vs control, inflammatory response signaling
[9] = 30 mg/kg/day vs control, mesangial cell signature

## CCCCN(CCCC)C(=O)CN1C[C@H](c2ccc3c(c2)OCO3)[C@@H](C(=O)O)[C@@H]1c1ccc(OC)cc1 [atrasentan, (2R,3R,4S)-4-(1,3-benzodioxol-5-yl)-1-[2-(dibutylamino)-2-oxoethyl]-2-(4-methoxyphenyl)pyrrolidine-3-carboxylic acid]
[1]
  Rapgef5 logFC: −0.3804
  Rhot2 logFC: 0.4576
  Slc7a1 logFC: −0.7304
  Slc12a2 logFC: −0.3373
  Slc38a1 logFC: −0.6989
  Smc3 logFC: −0.1696
  Sorbs2 logFC: −0.4717
  Tiam1 logFC: −0.9494
  Tuba4a logFC: 0.2861
  Vcl logFC: −0.3317
  Ythdc1 logFC: −0.0815
[2]
  Btg2 logFC: −0.6974
  Cdkn1a logFC: 0.2546
  Chst2 logFC: −0.368
  Csf1 logFC: −1.089
  Edn1 logFC: −1.328
  Eif2ak2 logFC: −0.3002
  F3 logFC: −0.5235
  Gabbr1 logFC: −0.1316
  Hpn logFC: 0.4187
  Il1r1 logFC: −0.8263
  Ly6e logFC: 0.2436
  Nfkb1 logFC: −0.616
  Nfkbia logFC: −0.7041
  Rnf144b logFC: −0.9765
  Ros1 logFC: −1.992
  Serpine1 logFC: −1.501
  Slc4a4 logFC: 0.5245
  Slc7a1 logFC: −0.7304
  Slc7a2 logFC: −1.336
  Slc11a2 logFC: 0.35
[3]
  Ahnak logFC: −0.7128
  Akap12 logFC: −0.5404
  Akt3 logFC: −0.4673
  Aldob logFC: 0.4923
  Ankrd12 logFC: −0.2463
  C7 logFC: −1.277
  Cald1 logFC: −0.5361
  Cblb logFC: −0.2068
  Ebf1 logFC: −0.3512
  Epb41l2 logFC: −0.6149
  Ets1 logFC: −0.3065
  Fchsd2 logFC: −0.1882
  Frmd4a logFC: −0.3955
  Gata3 logFC: −0.4924
  Gpx3 logFC: 0.71
  Igfbp7 logFC: 0.1088
  Lama2 logFC: −0.4437
  Maml2 logFC: −0.2311
  Mef2c logFC: −0.6302
  Meis1 logFC: −0.3593
  Myh9 logFC: −0.4543
  Myo1e logFC: −0.292
  Nbea logFC: −0.1933
  Nfkbia logFC: −0.7041
  Nr4a1 logFC: −1.621
  Piezo2 logFC: −0.6148
  Postn logFC: −2.293
  Pparg logFC: −0.5616
  Ppp1r12a logFC: −0.2135
  Prkg1 logFC: −0.328
  Psd3 logFC: −0.5227
  Ptprm logFC: −0.2678
  Rapgef5 logFC: −0.3804
  Raph1 logFC: −0.3852
  Rbms3 logFC: −0.7192
  Robo1 logFC: −0.7261
  Stard13 logFC: −0.6367
  Tacc1 logFC: −0.3693
  Tcf4 logFC: −0.224
  Tjp1 logFC: −0.3054
  Tns3 logFC: −0.3043
  Unc5c logFC: 0.3685
  Utrn logFC: −0.5143
  Zeb2 logFC: −0.6492
[4]
  Cntfr logFC: −0.9365
  Csf1 logFC: −1.26
  Il1r1 logFC: −0.6078
  Il2ra logFC: −1.58
  Map3k8 logFC: −0.8664
[5]
  Ackr3 logFC: 0.5485
  Btg1 logFC: −0.4825
  Btg2 logFC: −0.6689
  Ccn1 logFC: −0.9198
  Ccnd1 logFC: 0.6947
  Cdkn1a logFC: 0.6369
  Csf1 logFC: −1.26
  Dnajb4 logFC: −0.7534
  Edn1 logFC: −1.688
  Efna1 logFC: 0.7278
  Ehd1 logFC: 0.4138
  F3 logFC: −0.564
  Fosl2 logFC: −1.205
  Gem logFC: −1.912
  Id2 logFC: 0.5394
  Ifit2 logFC: −0.6119
  Jag1 logFC: −0.6784
  Klf2 logFC: −0.7182
  Klf4 logFC: −0.9474
  Map3k8 logFC: −0.8664
  Nfat5 logFC: −0.5845
  Nfkb1 logFC: −0.6498
  Nfkbia logFC: −0.7307
  Nr4a1 logFC: −1.803
  Nr4a2 logFC: −1.728
  Nr4a3 logFC: −1.939
  Per1 logFC: −0.9307
  Pfkfb3 logFC: −1.485
  Pnrcl logFC: 0.4856
  Rel logFC: −1.298
  Rhob logFC: −0.7265
  Serpine1 logFC: −1.387
  Snn logFC: 0.4725
  Spsb1 logFC: −1.097
  Tnfaip8 logFC: 0.517
  Traf1 logFC: −1.371
  Trib1 logFC: −1.074
  Zbtb10 logFC: −0.2912
[6]
  Hras logFC: 0.4354
  Map3k1 logFC: −0.7636
  Nfkb1 logFC: −0.6498
  Nfkbia logFC: −0.7307
  Pdgfb logFC: −0.5424
  Pdgfra logFC: −0.7094
  Pik3cg logFC: −0.7287
  Pik3r1 logFC: −0.6223
  Pla2g4a logFC: −0.9024
  Tiam1 logFC: −1.227
[7]
  Arid4a logFC: −0.5719
  Atrx logFC: −0.4031
  Bcar1 logFC: 0.4182
  Ccdc88a logFC: −0.7206
  Ccnd1 logFC: 0.6947
  Cep192 logFC: −0.43
  Cntrl logFC: −0.5569
  Dmd logFC: −0.405
  Epb41l2 logFC: −0.7021
  Fgd6 logFC: −0.6983
  Flna logFC: −0.6183
  Itsn1 logFC: −0.5129
  Kmt5a logFC: 0.4169
  Meis1 logFC: −0.4934
  Myh9 logFC: −0.6171
  Myh10 logFC: −0.5242
  Myo1e logFC: −0.4177
  Nin logFC: −0.7352
  Ophn1 logFC: −0.7129
  Rapgef5 logFC: −0.4225
  Rhot2 logFC: 0.5432
  Slc7a1 logFC: −0.7952
  Slc12a2 logFC: −0.3306
  Slc38a1 logFC: −0.8108
  Smc3 logFC: −0.4558
  Sorbs2 logFC: −0.3601
  Tiam1 logFC: −1.227
  Tuba4a logFC: 0.4958
  Vcl logFC: −0.3604
  Ythdc1 logFC: −0.3579
[8]
  Btg2 logFC: −0.6689
  Cdkn1a logFC: 0.6369
  Chst2 logFC: −0.9214
  Csf1 logFC: −1.26
  Edn1 logFC: −1.688
  Eif2ak2 logFC: −0.5033
  F3 logFC: −0.564
  Gabbr1 logFC: −0.5762
  Hpn logFC: 0.6197
  Il1r1 logFC: −0.6078
  Ly6e logFC: 0.6857
  Nfkb1 logFC: −0.6498
  Nfkbia logFC: −0.7307
  Rnf144b logFC: −0.8848
  Ros1 logFC: −1.985
  Serpine1 logFC: −1.387
  Slc4a4 logFC: 0.6146
  Slc7a1 logFC: −0.7952
  Slc7a2 logFC: −0.9808
  Slc11a2 logFC: 0.4205
[9]
  Ahnak logFC: −1.013
  Akap12 logFC: −0.8211
  Akt3 logFC: −0.4843
  Aldob logFC: 0.748
  Ankrd12 logFC: −0.4726
  C7 logFC: −1.079
  Cald1 logFC: −0.506
  Cblb logFC: −0.4288
  Ebf1 logFC: −0.4506
  Epb41l2 logFC: −0.7021
  Ets1 logFC: −0.3379
  Fchsd2 logFC: −0.3772
  Frmd4a logFC: −0.5742
  Gata3 logFC: −0.5216
  Gpx3 logFC: 1.122
  Igfbp7 logFC: 0.4259
  Lama2 logFC: −0.4895
  Maml2 logFC: −0.4441
  Mef2c logFC: −0.6869
  Meis1 logFC: −0.4934
  Myh9 logFC: −0.6171
  Myo1e logFC: −0.4177
  Nbea logFC: −0.432
  Nfkbia logFC: −0.7307
  Nr4a1 logFC: −1.803
  Piezo2 logFC: −0.8237
  Postn logFC: −1.247
  Pparg logFC: −0.6781
  Ppp1r12a logFC: −0.3826
  Prkg1 logFC: −0.6356
  Psd3 logFC: −0.5843
  Ptprm logFC: −0.5453
  Rapgef5 logFC: −0.4225
  Raph1 logFC: −0.5358
  Rbms3 logFC: −0.8895
  Robo1 logFC: −0.6009
  Stard13 logFC: −0.8466
  Tacc1 logFC: −0.4924
  Tcf4 logFC: −0.3055
  Tjp1 logFC: −0.3989
  Tns3 logFC: −0.4522
  Unc5c logFC: 0.9517
  Utrn logFC: −0.7697
  Zeb2 logFC: −0.6778
